Source: US11331327B2, “Antibacterial use of halogenated salicylanilides” (UNION therapeutics A/S, priority 2014, dated 2022)
In brackets after ≈: the same amount, converted by molar mass. Read-outs that look alike come from different tables or passages of the source.

Test system: S. aureus clinical isolates and S. aureus ATCC 29213
Experiment: MIC assay according to CLSI criteria, Example 2, S. aureus strains
Assay type: cell-based, Staphylococcus aureus
Conditions: Staphylococcus aureus, read-out: MIC
Procedure: Strains were conserved in Luria Bertani (LB) Broth (S. aureus) or Brain Heart Infusion (BHI) (S. pyogenes) supplemented with glycerol 15% (v/v) at −80° C., and reactivated by isolation on LB (S. aureus) or BHI (S. pyogenes) agar plates. Strains were cultivated in Mueller Hinton (MH) Broth-cation adjusted (S. aureus) or BHI (S. pyogenes). All strains were cultivated aerobically (microaerobically for S. pyogenes strains) at 37° C.
Bacterial cultures were stopped in their exponential growth phase and plates were inoculated with the approximate concentration of 5×10^5 cells per well. Plates were incubated at 37° C. for 18 hours (S. aureus) or 24 hours (S. pyogenes).

O=C(Nc1ccc([N+](=O)[O-])cc1Cl)c1cc(Cl)ccc1O [Niclosamide, 5-chloro-N-(2-chloro-4-nitrophenyl)-2-hydroxybenz-amide]
MIC (ATCC 29213 / MRSA, strain MRSA 12): 0.5 µg/mL (≈ 1.53 µM) | MIC (ATCC 29213 / MRSA, strain MRSA 13): 0.25 µg/mL (≈ 0.764 µM) | MIC (ATCC 29213 / MRSA, strain MRSA 14): 0.25 µg/mL (≈ 0.764 µM) | MIC (ATCC 29213 / MRSA, strain MRSA 15): 0.25 µg/mL (≈ 0.764 µM) | MIC (ATCC 29213 / MRSA, strain MRSA 16): 0.25 µg/mL (≈ 0.764 µM) | MIC (ATCC 29213 / MRSA, strain MRSA 17): 0.25 µg/mL (≈ 0.764 µM) | MIC (ATCC 29213 / MRSA, strain MRSA 18): 0.25 µg/mL (≈ 0.764 µM) | MIC (ATCC 29213 / MRSA, strain MRSA 19): 0.25 µg/mL (≈ 0.764 µM) | MIC (ATCC 29213 / MRSA, strain MRSA 20): 0.25 µg/mL (≈ 0.764 µM) | MIC (ATCC 29213 / MRSA, strain MRSA 21): 0.25 µg/mL (≈ 0.764 µM) | MIC (ATCC 29213 / MRSA, strain MRSA 22): 0.25 µg/mL (≈ 0.764 µM) | MIC (ATCC 29213 / MRSA, strain MRSA 23): 0.25 µg/mL (≈ 0.764 µM) | MIC (ATCC 29213 / MRSA, strain MRSA 24): 0.25 µg/mL (≈ 0.764 µM) | MIC (ATCC 29213 / MRSA, strain MRSA 25): 0.25 µg/mL (≈ 0.764 µM) | MIC (ATCC 29213 / MRSA, strain MRSA 26): 0.5 µg/mL (≈ 1.53 µM) | MIC (ATCC 29213 / MRSA, strain MRSA 27): 0.5 µg/mL (≈ 1.53 µM) | MIC (ATCC 29213 / MRSA, strain MRSA 27b): 0.25 µg/mL (≈ 0.764 µM) | MIC (ATCC 29213 / MRSA, strain MRSA 28): 0.25 µg/mL (≈ 0.764 µM) | MIC (ATCC 29213 / MRSA, strain MRSA 29): 0.5 µg/mL (≈ 1.53 µM) | MIC (ATCC 29213 / MRSA, strain MRSA 30): 0.25 µg/mL (≈ 0.764 µM) | MIC (ATCC 29213 / MRSA, strain MRSA 31): 0.25 µg/mL (≈ 0.764 µM) | MIC (ATCC 29213 / MRSA, strain MRSA 32): 0.25 µg/mL (≈ 0.764 µM) | MIC (ATCC 29213 / MRSA, strain MRSA 33): 0.25 µg/mL (≈ 0.764 µM) | MIC (ATCC 29213 / MRSA, strain MRSA 34): 0.25 µg/mL (≈ 0.764 µM) | MIC (ATCC 29213 / MRSA, strain MRSA 35): 0.25 µg/mL (≈ 0.764 µM) | MIC (ATCC 29213 / MRSA, strain MRSA 36): 0.25 µg/mL (≈ 0.764 µM) | MIC (ATCC 29213 / MRSA, strain MRSA 37): 0.25 µg/mL (≈ 0.764 µM) | MIC (ATCC 29213 / MRSA, strain MRSA 38): 0.25 µg/mL (≈ 0.764 µM) | MIC (ATCC 29213 / MRSA, strain MRSA 39): 0.25 µg/mL (≈ 0.764 µM) | MIC (ATCC 29213 / MRSA, strain MRSA 40): 0.25 µg/mL (≈ 0.764 µM) | MIC (ATCC 29213 / MRSA, strain MRSA 41): 0.25 µg/mL (≈ 0.764 µM) | MIC (ATCC 29213 / MRSA, strain MRSA 42): 0.25 µg/mL (≈ 0.764 µM) | MIC (ATCC 29213 / MRSA, strain MRSA 43): 0.25 µg/mL (≈ 0.764 µM) | MIC (ATCC 29213 / MRSA, strain MRSA 44): 0.25 µg/mL (≈ 0.764 µM) | MIC (ATCC 29213 / MRSA, strain MRSA 45): 0.25 µg/mL (≈ 0.764 µM) | MIC (ATCC 29213 / MRSA, strain MRSA 46): 0.25 µg/mL (≈ 0.764 µM) | MIC (ATCC 29213 / MRSA, strain MRSA 47): 0.25 µg/mL (≈ 0.764 µM) | MIC (ATCC 29213 / MRSA, strain MRSA 48): 0.25 µg/mL (≈ 0.764 µM) | MIC (ATCC 29213 / MRSA, strain MRSA 49): 0.25 µg/mL (≈ 0.764 µM) | MIC (ATCC 29213 / MRSA, strain MRSA 50): 0.25 µg/mL (≈ 0.764 µM) | MIC (ATCC 29213 / MRSA, strain MRSA 51): 0.125 µg/mL (≈ 0.382 µM) | MIC (ATCC 29213 / MRSA, strain MRSA 52): 0.25 µg/mL (≈ 0.764 µM) | MIC (ATCC 29213 / MRSA, strain MRSA 53): 0.25 µg/mL (≈ 0.764 µM) | MIC (ATCC 29213 / MRSA, strain MRSA 54): 0.25 µg/mL (≈ 0.764 µM) | MIC (ATCC 29213 / MRSA, strain MRSA 55): 0.25 µg/mL (≈ 0.764 µM) | MIC (ATCC 29213 / MRSA, strain MRSA 56): 0.25 µg/mL (≈ 0.764 µM) | MIC (ATCC 29213 / MRSA, strain MRSA 57): 0.25 µg/mL (≈ 0.764 µM) | MIC (ATCC 29213 / MRSA, strain MRSA 58): 0.25 µg/mL (≈ 0.764 µM) | MIC (ATCC 29213 / MRSA, strain MRSA 59): 0.25 µg/mL (≈ 0.764 µM) | MIC (ATCC 29213 / MRSA, strain MRSA 60): 0.25 µg/mL (≈ 0.764 µM) | MIC (ATCC 29213 / MRSA, strain MRSA 61): 0.25 µg/mL (≈ 0.764 µM) | MIC (ATCC 29213 / MRSA, strain MRSA 62): 0.25 µg/mL (≈ 0.764 µM) | MIC (ATCC 29213 / MRSA, strain MRSA 63): 0.25 µg/mL (≈ 0.764 µM) | MIC (ATCC 29213 / MRSA, strain MRSA 64): 0.25 µg/mL (≈ 0.764 µM) | MIC (ATCC 29213 / MRSA, strain MRSA 65): 0.25 µg/mL (≈ 0.764 µM) | MIC (ATCC 29213 / MRSA, strain MRSA 66): 0.25 µg/mL (≈ 0.764 µM) | MIC (ATCC 29213 / MRSA, strain MRSA 67): 0.25 µg/mL (≈ 0.764 µM) | MIC (ATCC 29213 / MRSA, strain MRSA 68): 0.25 µg/mL (≈ 0.764 µM) | MIC (ATCC 29213 / MRSA, strain MRSA 69): 0.25 µg/mL (≈ 0.764 µM) | MIC (ATCC 29213 / MRSA, strain MRSA 70): 0.125 µg/mL (≈ 0.382 µM) | MIC (ATCC 29213 / MRSA, strain MRSA 71): 0.25 µg/mL (≈ 0.764 µM) | MIC (ATCC 29213 / MRSA, strain MRSA 72): 0.25 µg/mL (≈ 0.764 µM) | MIC (ATCC 29213 / MRSA, strain MRSA 73): 0.5 µg/mL (≈ 1.53 µM) | MIC (ATCC 29213 / MRSA, strain MRSA 74): 0.25 µg/mL (≈ 0.764 µM) | MIC (ATCC 29213 / MRSA, strain MRSA 75): 0.5 µg/mL (≈ 1.53 µM) | MIC (ATCC 29213 / MRSA, strain MRSA 76): 0.25 µg/mL (≈ 0.764 µM) | MIC (ATCC 29213 / MRSA, strain MRSA 77): 0.25 µg/mL (≈ 0.764 µM) | MIC (ATCC 29213 / MRSA, strain MRSA 78): 0.5 µg/mL (≈ 1.53 µM) | MIC (ATCC 29213 / MRSA, strain MRSA 79): 0.25 µg/mL (≈ 0.764 µM) | MIC (ATCC 29213 / MRSA, strain MRSA 80): 0.5 µg/mL (≈ 1.53 µM) | MIC (ATCC 29213 / MRSA, strain MRSA 81): 0.5 µg/mL (≈ 1.53 µM) | MIC (ATCC 29213 / MRSA, strain MRSA 82): 0.25 µg/mL (≈ 0.764 µM) | MIC (ATCC 29213 / MRSA, strain MRSA 83): 0.5 µg/mL (≈ 1.53 µM) | MIC (ATCC 29213 / MRSA, strain MRSA 84): 0.25 µg/mL (≈ 0.764 µM) | MIC (ATCC 29213 / MRSA, strain MRSA 85): 0.5 µg/mL (≈ 1.53 µM) | MIC (ATCC 29213 / MRSA, strain MRSA 86): 0.25 µg/mL (≈ 0.764 µM) | MIC (ATCC 29213 / MRSA, strain MRSA 87): 0.25 µg/mL (≈ 0.764 µM) | MIC (ATCC 29213 / MRSA, strain MRSA 88): 0.25 µg/mL (≈ 0.764 µM) | MIC (ATCC 29213 / MRSA, strain MRSA 89): 0.5 µg/mL (≈ 1.53 µM) | MIC (ATCC 29213 / MRSA, strain MRSA 90): 0.5 µg/mL (≈ 1.53 µM) | MIC (ATCC 29213 / MRSA, strain MRSA 91): 0.25 µg/mL (≈ 0.764 µM) | MIC (ATCC 29213 / MRSA, strain MRSA 92): 0.25 µg/mL (≈ 0.764 µM) | MIC (ATCC 29213 / MRSA, strain MRSA 93): 0.25 µg/mL (≈ 0.764 µM) | MIC (ATCC 29213 / MRSA, strain MRSA 94): 0.25 µg/mL (≈ 0.764 µM) | MIC (ATCC 29213 / MRSA, strain MRSA 95): 0.25 µg/mL (≈ 0.764 µM) | MIC (ATCC 29213 / MRSA, strain MRSA 96): 0.25 µg/mL (≈ 0.764 µM) | MIC (ATCC 29213 / MRSA, strain MRSA 97): 0.25 µg/mL (≈ 0.764 µM) | MIC (ATCC 29213 / MRSA, strain MRSA 98): 0.5 µg/mL (≈ 1.53 µM) | MIC (ATCC 29213 / MRSA, strain MRSA 99): 0.25 µg/mL (≈ 0.764 µM) | MIC (ATCC 29213 / MRSA, strain MRSA 100): 0.25 µg/mL (≈ 0.764 µM) | MIC (ATCC 29213 / MRSA, strain MRSA 101): 0.5 µg/mL (≈ 1.53 µM) | MIC (ATCC 29213 / MRSA, strain MRSA 102): 0.25 µg/mL (≈ 0.764 µM) | MIC (ATCC 29213 / MRSA, strain MRSA 103): 0.25 µg/mL (≈ 0.764 µM) | MIC (ATCC 29213 / MRSA, strain MRSA 104): 0.5 µg/mL (≈ 1.53 µM) | MIC (ATCC 29213 / MRSA, strain MRSA 105): 0.25 µg/mL (≈ 0.764 µM) | MIC (ATCC 29213 / MRSA, strain MRSA 106): 0.25 µg/mL (≈ 0.764 µM) | MIC (ATCC 29213 / MRSA, strain MRSA 107): 0.25 µg/mL (≈ 0.764 µM) | MIC (ATCC 29213 / MRSA, strain MRSA 108): 0.25 µg/mL (≈ 0.764 µM) | MIC (ATCC 29213 / MRSA, strain MRSA 109): 0.25 µg/mL (≈ 0.764 µM) | MIC (ATCC 29213 / MRSA, strain MRSA 110): 0.25 µg/mL (≈ 0.764 µM) | MIC (ATCC 29213 / MRSA, strain MRSA 111): 0.5 µg/mL (≈ 1.53 µM) | MIC (ATCC 29213 / MRSA, strain MRSA 112): 0.25 µg/mL (≈ 0.764 µM) | MIC (ATCC 29213 / MRSA, strain MRSA 113): 0.25 µg/mL (≈ 0.764 µM) | MIC (ATCC 29213 / MSSA, strain MSSA 01): 0.5 µg/mL (≈ 1.53 µM) | MIC (ATCC 29213 / MSSA, strain MSSA 02): 0.25 µg/mL (≈ 0.764 µM) | MIC (ATCC 29213 / NEWMAN, strain Newman): 0.25 µg/mL (≈ 0.764 µM)
